Data: article PMC9032233, “2-{5-[(Z,2Z)-2-Chloro-3-(4-nitrophenyl)-2-propenylidene]-4-oxo-2-thioxothiazolidin-3-yl}-3-methylbutanoic Acid as a Potential Anti-Breast Cancer Molecule” (International Journal of Molecular Sciences, 2022)
Read-outs that look alike come from different tables or passages of the source.

How the values were obtained:
MDA-MB-231 cells [1] = assay: [3H]-thymidine incorporation assay, MDA-MB-231; type: cell-based; conditions: Homo sapiens
Protocol: The antiproliferative properties of the newly synthesized compound were investigated through the [^3H]-thymidine incorporation assay, as described in the literature. Cells culture was exposed to various concentrations of Les-3331 acid and reference drug for 24 h. Thereafter, cells were washed with PBS and 1 mL of fresh medium was added to each well. Then, 0.5 µCi of radioactive [^3H]-thymidine was appended, and the incubation continued for four hours. After the following incubation, the liquid was aspirated and the plate was placed on ice. Cells were washed twice with 1 mL of 0.05 M Tris-HCl buffer comprising 0.11 M NaCl, then twice after that with 1 mL of 5% TCA acid (Stanlab, Lublin, Poland). Finally, the cells were dissolved with 1 mL of 0.1 M NaOH with 1% SDS (Sigma-Aldrich, St. Louis, MO, USA) at room temperature (RT). The resulting cell lysates were transferred into scintillation vials containing 2 mL of scintillation fluid. The radioactivity was determined using Scintillation Counter 1900 TR, TRI-CARB (Packard, Perkin Elmer, Inc., San Jose, CA, USA). The intensity of DNA biosynthesis in cells was expressed in dpm of radioactive thymidine incorporated in the DNA. The radioactivity observed in untreated control cells was taken as 100%. Values from the tested compounds were expressed as a percentage of the control value.

MDA-MB-231 cells [2] = assay: Mitochondrial membrane potential analysis (JC-1), MDA-MB-231; type: cell-based, human; conditions: 24 h
Protocol: (§1) The JC-1 MitoScreen kit (BD Biosciences, San Diego, CA, USA) was used for the mitochondrial membrane potential (ΔΨm) analysis. The assay was performed using a flow cytometer (BD FACSCanto II, Becton Dickinson Biosciences Systems, San Jose, CA, USA). The Les-3331 and reference drug were used in 1 µM and 5 µM concentrations. After 24 h incubation with tested compounds, the assay was performed as described in the literature. Analysis of the obtained results was performed using FACSDiva software (version 6.1.3, BD Biosciences Systems, San Jose, CA, USA). The equipment was calibrated with BD Cytometer Setup and Tracking Beads (BD Biosciences, San Diego, CA, USA).

LC3A [3] = assay: LC3A concentration in MCF-7 cell lysates (ELISA); type: cell-based, human; conditions: 24 h, control 6.726 ng/mL
Protocol: (§2) High sensitivity assay kits (EIAab Science Co., Ltd., Wuhan, China; Abcam plc., Cambridge, United Kingdom; Cloud-Clone Corp., Katy, TX, USA) were used to determine the concentrations of selected proteins in cell lysates […] In brief, after trypsinization, cells were washed thrice with cold PBS and centrifuged at 1000× g for 5 min at 4 °C. Then, cells (1.5 × 10^6) were suspended in lysis buffer for whole-cell lysates. After the second centrifugation, cellular supernatants were frozen immediately at −70 °C. Untreated cancer cells were taken as a control.
(§3) The microtiter plates provided in the kits were pre-coated with an antibody specific to the analyzed antigen. The tests were carried out according to the manufacturer’s protocols.

[4] = test system: MCF-7 human breast cancer cells; assay: MTT cell viability assay, MCF-7; type: cell-based; conditions: MCF7, MCF-7, MTT, 24 h incubation
Protocol: Cell culture MCF-7, MDA-MB-231 human breast cancer cells, and fibroblasts skin cells were purchased from the ATCC—American Type Culture Collection. All cell lines were maintained in DMEM (Corning, Kennebunk, ME, USA). The medium was supplemented with 10% fetal bovine serum—FBS (Eurx, Gdansk, Poland) and 1% antimicrobial substances: penicillin–streptomycin (Corning, Kennebunk, ME, USA). The incubator asserted appropriate growth conditions required for these cell lines: 5% of CO2, at 37 °C, with the humidity between 90–95%. Cells were seeded in 100 mm round dishes. An amount of 0.05% trypsin containing 0.02% EDTA (Corning, Kennebunk, ME, USA) and phosphate-buffered saline (PBS) without calcium and magnesium (Corning, Kennebunk, ME, USA) was used to detach cells from a plate once 80–90% cell confluence was achieved. In the next step, cells were reseeded in six-well plates (density—5 × 10^5 of cells per well) in 1 mL of DMEM after a 24 h incubation used in the presented tests.
To examine the effect of Les-3331 on cell viability, the MTT assay was performed. […] The absorbance was measured using Spectrophotometer UV-VIS Helios Gamma (Unicam/ThermoFisher Scientific Inc., Waltham, MA, USA) at a wavelength of 570 nm. The obtained absorbance in untreated control cells was taken as 100%, while the survival of the cells incubated with tested compounds presented as a percentage of the control value.

LC3A [5] = assay: LC3A concentration in MDA-MB-231 cell lysates (ELISA); type: cell-based, human; conditions: 24 h, control 2.965 ng/mL
Protocol: as §2, §3

MCF-7 cells [6] = assay: Mitochondrial membrane potential analysis (JC-1), MCF-7; type: cell-based, human; conditions: 24 h
Protocol: as §1

MCF-7 cells [7] = assay: Annexin V binding assay (flow cytometry), MCF-7; type: cell-based, human; conditions: 24 h
Protocol: The effect of Les-3331 and reference drug on the induction of apoptosis process in human breast cancer cell lines was evaluated using a flow cytometer (BD FACSCanto II, Becton Dickinson Biosciences Systems, San Jose, CA, USA) and Annexin V binding Apoptosis Detection Kit II (BD Biosciences, San Diego, CA, USA). The Les-3331 and reference drug were used in 1 µM and 5 µM concentrations. The test was carried out after 24 h incubation with the tested compounds according to the manufacturer’s protocol and was previously described by our research group. Analysis of the obtained results was performed using FACSDiva software (version 6.1.3, BD Biosciences Systems, San Jose, CA, USA). The equipment was calibrated with BD Cytometer Setup and Tracking Beads (BD Biosciences, San Diego, CA, USA).

SMILES | IC50 (MDA-MB-231 cells [1]; MDA-MB-231, 24 h incubation, read-out: IC50, cell proliferation ([3H]-thymidine incorporation)) [µM] | % of cells with decreased ΔΨm (MDA-MB-231 cells [2]; MDA-MB-231, 1 µM) [%] | % of cells with decreased ΔΨm (MDA-MB-231 cells [2]; MDA-MB-231, 5 µM) [%] | LC3A concentration (LC3A [3]; MCF-7, 1 µM) [ng/mL] | LC3A concentration (LC3A [3]; MCF-7, 5 µM) [ng/mL] | IC50 [4] [µM] | LC3A concentration (LC3A [5]; MDA-MB-231, 1 µM) [ng/mL] | LC3A concentration (LC3A [5]; MDA-MB-231, 5 µM) [ng/mL] | % of cells with decreased ΔΨm (MCF-7 cells [6]; MCF-7, 1 µM) [%] | % of cells with decreased ΔΨm (MCF-7 cells [6]; MCF-7, 5 µM) [%] | % of late and early apoptotic cells (MCF-7 cells [7]; MCF-7, 1 µM) [%] | % of late and early apoptotic cells (MCF-7 cells [7]; MCF-7, 5 µM) [%] | IC50 (MDA-MB-231 cells [1]; MDA-MB-231, read-out: IC50, cell proliferation ([3H]-thymidine incorporation)) [µM]
COc1cc([C@@H]2c3cc4c(cc3[C@@H](O[C@@H]3O[C@@H]5CO[C@@H](C)O[C@H]5[C@H](O)[C@H]3O)[C@H]3COC(=O)[C@H]23)OCO4)cc(OC)c1O [Etoposide, reference compound] | > 20 | 11.4 | 15.6 | 4.505 | 4.582 | > 50 | 2.800 | 1.313 | 10.2 | 18.5 | 10.7 | 10.7 | 
CC(C)C(C(=O)O)N1C(=O)/C(=C/C(Cl)=C/c2ccc([N+](=O)[O-])cc2)SC1=S (centres unmarked) [Les-3331, 2-{5-[(Z,2Z)-2-chloro-3-(4-nitrophenyl)-2-propenylidene]-4-oxo-2-thioxothiazolidin-3-yl}-3-methylbutanoic acid] |  | 21.8 | 36.3 | 4.917 | 1.127 | 5.02 |  | 1.258 | 9.8 | 25.5 | 6.5 | 40.4 | 8.01
